Test results taken from PMC8268581, “Identification of 3,4-Dihydro-2H,6H-pyrimido[1,2-c][1,3]benzothiazin-6-imine Derivatives as Novel Selective Inhibitors of Plasmodium falciparum Dihydroorotate Dehydrogenase” (International Journal of Molecular Sciences, 2021).

How the values were obtained:
[1] = system: P. falciparum 3D7 strain expressing the cytosolic yeast DHODH (3D7-yDHODH); assay: Confirmation assay against transgenic parasite 3D7-yDHODH; assay type: cell-based, Plasmodium falciparum; conditions: for activity at 10 µM: 72 h, relative parasite growth at 10 µM compound, read-out: Growth at 10 µM (%) Pf3D7-yDHODH; for susceptibility of Pf3D7-yDHODH parasite (in words): relative parasite growth at 10 µM, compared with wild-type 3D7
Experimental: (§1) Synchronized ring-stage parasites at 0.3% parasitemia and 2% hematocrit were cultured in a 384-well plate at 25 µL with test compounds at a final concentration in the range of 0.0003 to 10 µM with a fixed DMSO concentration of 0.4% (v/v). Parasite growth was monitored by the diaphorase-coupled P. falciparum lactate dehydrogenase (PfLDH) assay, as previously described. After 72 h, 70 µL of the assay solution (150 mM lithium L-lactate (Wako), 0.05 mg/mL 3-acetylpyridine adenine dinucleotide (Oriental Yeast Co., Ltd., Tokyo, Japan), 0.2 mg/mL nitro blue tetrazolium (Wako), 1 unit/mL diaphorase, and 100 mM Tris-HCl pH 8.0) were mixed with the parasite culture and incubated at room temperature for 40 min, and the generated nitro blue formazan was measured at 650 nm using a SpectraMax®® Paradigm®® Multi-Mode Microplate Reader. […] The EC50 was calculated using GraphPad Prism 8.0 software from the mean of quadruplets values.
The P. falciparum 3D7 strain expressing the cytosolic yeast DHODH (3D7-yDHODH) was prepared as follows. pHHyDHODH-GFP plasmid (Kerafast, Boston, MA, USA) was transfected to the P. falciparum 3D7 strain following the established transfection method. Briefly, 50 µg of plasmid dissolved in cytomix solution (120 mM KCl, 0.15 mM CaCl2, 10 mM K2HPO4/KH2PO4 pH 7.6, 25 mM HEPES-KOH pH 7.6, 2 mM ethylene glycol-bis(β-aminoethyl ether)-N,N,N′,N′-tetraacetic acid (EGTA, Dojindo), and 5 mM magnesium chloride (Wako)) was transfected into the red blood cells by the Gene Pulser Xcell (Bio-Rad). Percoll–sorbitol synchronized parasites were mixed with red blood cells containing plasmid and maintained under 5 nM WR99210 for 2 weeks. The growth of resistant parasites against DSM265 and atovaquone, as PfDHODH and complex III inhibitors respectively, was confirmed by PfLDH/diaphorase assay. A total of 10 µM PfDHODH inhibitors were tested against wild-type 3D7 and 3D7-yDHODH following the method described above in triplicate. The significance of difference between the inhibition of the two parasite strains was evaluated by Student’s t-test (Figure S4).

[2] = Cytotoxicity assay, DLD-1 (Cell Counting Kit-8); assay type: cell-based; conditions: DLD-1 human colorectal adenocarcinoma cells
Experimental: Human dermal fibroblast cells (HDF, Zenbio, Inc., Durham, NC, USA) were cultured in Dulbecco’s Modified Eagle Medium/Nutrient Mixture F-12 medium (DMEM/F12, Gibco), human pancreatic carcinoma cells (PANC-1, DS Pharma Biomedical, Co., Ltd.) were cultured in DMEM (Gibco), and human colorectal adenocarcinoma cells (DLD-1, Taiho Pharmaceutical Company) were cultured in RPMI-1640 medium (FUJIFILM Wako Pure Chemicals). The culture mediums were supplemented with 10% (v/v) heat-inactivated fetal bovine serum (Gibco) and the cells were maintained at 37 °C under 5% CO2.
HDF, PANC-1, and DLD-1 were seeded at 2.5 × 10^4 cells/well on a 96-well plate and incubated at 37 °C under 5% CO2 overnight. The cells were then washed with PBS and the medium was replaced with 99 µL of fresh media. Then, 1 µL of the compounds or DMSO was added to the respective wells. As controls, wells containing 1% (v/v) DMSO in column 1 and wells containing only the culture medium in column 12 were used as the negative and positive controls, respectively. After 48 h of incubation, the cells were washed with PBS, and 99 µL of fresh media was replaced, followed by the addition of 10 µL of Cell Counting Kit-8 (Dojindo) to each well. After 3 h of incubation, the absorbance was measured at 450 nm using a SpectraMax®® Paradigm®® Multi-Mode microplate Reader. The calculation of cell viability in the test well was based on the absorbance of control wells according to the manufacturer’s protocol. The mean of quadruplet values was used to calculate the CC50 using GraphPad Prism 8.0 software.

[3] = biological target: mammalian mitochondrial complexes II–III (Bos taurus, UniProt P00157+P35720+Q3T189+Q95123); assay: succinate-cytochrome c reductase (complexes II–III) activity assay; assay type: biochemical; conditions: bovine heart mitochondria, range tested 0.0007 to 22.7 µM; read-out: IC50 Mammalian Mitochondrial CII–III
Experimental: (§2) Bovine heart mitochondria were prepared as previously described. The NADH-cytochrome c reductase (complexes I–III) and succinate-cytochrome c reductase (complexes II–III) activities were assayed in 384-well plates following an established protocol with small modifications. Complex I–III activity was assayed in a reaction mix containing 50 mM phosphate buffer pH 7.4, 2 mM KCN, 200 µM cytochrome c (cytochrome c from horse heart, Nacalai tesque), and 15 µg/mL mitochondria. Plates containing 1 µL serial dilutions of PfDHODH inhibitors were prepared and mixed with 38 µL of the reaction mix, as described above. The reaction was started by the addition of 5 µL of 2.6 mM NADH, and the assay was performed as described for PfDHODH, but at 550 nm and with 15 min of incubation. Complex II–III activity was assayed similarly to complex I–III activity but with 100 µM cytochrome c and 25 µg/mL mitochondria, and the reaction was started by 10 mM succinate. For both assays, DMSO and 5 µM ascochlorin were used as negative and positive controls, respectively. Assays were performed in triplicate.

P. falciparum 3D7 = assay: In vitro antimalarial assay (PfLDH/diaphorase); assay type: cell-based; conditions: Plasmodium falciparum, growth inhibition, 72 h, 0.0003 to 10 µM, read-out: EC50 Pf3D7
Experimental: This assay was conducted using human red blood cells (RBC) following the guidelines of the ethics committee of Nagasaki University (permission no. 19). Human RBC was obtained from the Japanese Red Cross Society. The P. falciparum 3D7 strain was cultured in 2% hematocrit type O human RBC in RPMI-1640 medium (Gibco) supplemented with 23.8 mM sodium bicarbonate (Wako), 50 mg/L hypoxanthine (Wako), 25 mg/L gentamycin (Sigma), and 0.5% (w/v) AlbuMAX®® II (Gibco) under a 5% O2, 5% CO2, and 90% N2 atmosphere at 37 °C. Parasites were synchronized with 5% (w/v) D-sorbitol (Wako).
as §1

[4] = biological target: mammalian mitochondrial complexes I–III (Bos taurus, UniProt P00157+P03887+P17694+P42026); assay: NADH-cytochrome c reductase (complexes I–III) activity assay; assay type: biochemical; conditions: bovine heart mitochondria, range tested 0.0007 to 22.7 µM; read-out: IC50 Mammalian Mitochondrial CI–III
Experimental: as §2

Row | SMILES | activity at 10 µM [1] | EC50 at 48 h [2] | IC50 [3] | EC50 (P. falciparum 3D7) | IC50 [4] | susceptibility of Pf3D7-yDHODH parasite (in words) [1]
1 | N=C1Sc2cc(-c3ccc4ccccc4c3)ccc2C2=NCCCN12 [Compound 1] | -0.62 ± 0.07% | > 10 µM | > 22.7 µM | 0.43 ± 0.18 µM | > 22.7 µM | 
2 | N=C1Sc2cc(-c3ccc4c(c3)OCO4)ccc2C2=NCCCN12 [Compound 3] | -0.23 ± 0.01% | > 10 µM | > 22.7 µM | 1.16 ± 0.02 µM | > 22.7 µM | 
3 | N=C1Sc2cc(-c3ccc4c(c3)OCCO4)ccc2C2=NCCCN12 [Compound 4] | 24 ± 5.76% | > 10 µM | > 22.7 µM | 1.07 ± 0.05 µM | > 22.7 µM | 
4 | N=C1Sc2cc(-c3ccc4cnccc4c3)ccc2C2=NCCCN12 [Compound 5] | 26 ± 8.27% | > 10 µM | > 22.7 µM | 1.13 ± 0.05 µM | > 22.7 µM | 
5 | N=C1Sc2cc(-c3ccc4c(C(=O)OC(F)(F)F)c[nH]c4c3)ccc2C2=NCCCN12 [Compound 6] | 104.4 ± 0.11% | > 10 µM | > 22.7 µM | 0.37 ± 0.05 µM | > 22.7 µM | reduced susceptibility
6 | N=C1Sc2cc(-c3cc4ccccc4o3)ccc2C2=NCCCN12 [Compound 7] | 36.2 ± 1.01% | > 10 µM | > 22.7 µM | 0.34 ± 0.01 µM | > 22.7 µM | 
7 | N=C1Sc2cc(/C=C/c3ccccc3)ccc2C2=NCCCN12 [Compound 8] | 0.12 ± 0.21% | > 10 µM | > 22.7 µM | 0.63 ± 0.25 µM | > 22.7 µM | 
8 | CC(C)(C)N=C1Sc2cc(-c3cc4ccccc4s3)ccc2C2=NCCCN12 [Compound 10] | -0.48 ± 0.07% | > 10 µM | > 22.7 µM | 2.77 ± 0.28 µM | > 22.7 µM | 
9 | N=C1Sc2cc(-c3ccccc3)ccc2C2=NCCCN12 [Compound 12] | -0.22 ± 0.12% | > 10 µM | > 22.7 µM | 1.15 ± 0.07 µM | > 22.7 µM | 
10 | COC(=O)c1ccc(-c2ccc3c(c2)SC(=N)N2CCCN=C32)cc1 [Compound 13] | 70.5 ± 0.73% | > 10 µM | > 22.7 µM | 1.06 ± 0.01 µM | > 22.7 µM | reduced susceptibility
11 | N#Cc1ccc(-c2ccc3c(c2)SC(=N)N2CCCN=C32)cc1 [Compound 14] | 105 ± 0.47% | > 10 µM | > 22.7 µM | 1.21 ± 0.04 µM | > 22.7 µM | reduced susceptibility
12 | N=C1Sc2cc(-c3ccc(C(F)(F)F)cc3)ccc2C2=NCCCN12 [Compound 15] | -0.38 ± 0.17% | > 10 µM | > 22.7 µM | 1 ± 0.05 µM | > 22.7 µM | 
13 | CSc1ccc(-c2ccc3c(c2)SC(=N)N2CCCN=C32)cc1 [Compound 17] | -0.5 ± 0.01% | > 10 µM | > 22.7 µM | 1.62 ± 0.56 µM | > 22.7 µM | 
14 | N=C1Sc2cc(-c3ccc(OC(F)(F)F)cc3)ccc2C2=NCCCN12 [Compound 18] | 2.54 ± 0.42% | > 10 µM | > 22.7 µM | 0.37 ± 0.13 µM | > 22.7 µM | 
15 | N=C1Sc2cc(-c3ccc(C(=O)c4ccccc4)cc3)ccc2C2=NCCCN12 [Compound 19] | 68.6 ± 0.43% | > 10 µM | > 22.7 µM | 0.51 ± 0.14 µM | > 22.7 µM | reduced susceptibility
16 | C#CCOCc1ccc(C(=O)c2ccc(-c3ccc4c(c3)SC(=N)N3CCCN=C43)cc2)cc1 [Compound 20] | 0.45 ± 0.74% | > 10 µM | > 22.7 µM | 0.38 ± 0.08 µM | > 22.7 µM | 
17 | N=C1Sc2cc(-c3cccc([N+](=O)[O-])c3)ccc2C2=NCCCN12 [Compound 21] | 103 ± 0.67% | > 10 µM | > 22.7 µM | 0.85 ± 0.12 µM | > 22.7 µM | reduced susceptibility
18 | CC(C)Oc1cccc(-c2ccc3c(c2)SC(=N)N2CCCN=C32)c1 [Compound 22] | -0.06 ± 0.24% | > 10 µM | > 22.7 µM | 0.9 ± 0.44 µM | > 22.7 µM | 
19 | CCc1cccc(-c2ccc3c(c2)SC(=N)N2CCCN=C32)c1 [Compound 25] | 0.01 ± 0.15% | > 10 µM | > 22.7 µM | 1.77 ± 0.83 µM | > 22.7 µM | 
20 | N=C1Sc2cc(-c3ccccc3-c3ccccc3)ccc2C2=NCCCN12 [Compound 27] | 0.25 ± 0.04% | > 10 µM | > 22.7 µM | 0.39 ± 0.05 µM | > 22.7 µM | 
21 | c1ccc(-c2ccc3c(c2)SN2CCCN=C32)cc1 [Compound 30] | 63.6 ± 5.87% | > 10 µM | > 22.7 µM | 9.67 ± 5.09 µM | > 22.7 µM | reduced susceptibility
22 | c1ccc2c(-c3ccc4c(c3)SN3CCCN=C43)cccc2c1 [Compound 31] | 0% | > 10 µM | > 22.7 µM | 0.33 ± 0.01 µM | > 22.7 µM | 
23 | c1cc2c(cc1-c1ccc3c(c1)SN1CCCN=C31)OCO2 [Compound 32] | 0.11 ± 0.03% | > 10 µM | > 22.7 µM | 1.85 ± 0.53 µM | > 22.7 µM | 
24 | c1ccc(-c2ccc3c(c2)C2=NCCCN2S3)cc1 [Compound 36] | 32.5 ± 10.1% | > 10 µM | > 22.7 µM | 4.16 ± 0.09 µM | > 22.7 µM | 
25 | COC(=O)c1ccc(-c2ccc3c(c2)SN2CCCN=C32)cc1 [Compound 37] | -0.18 ± 0.05% | > 10 µM | > 22.7 µM | 2.78 ± 0.27 µM | > 22.7 µM | 
